Test results from patent US7935680B2, “Methods for modulating the axonal growth of central nervous system neurons” (Children's Medical Center Corporation, priority 1997, dated 2011).
“Also recorded” adds a separate entry of the source.

Assays:
Assay type in all cases: cell-based
[1] = test system: goldfish retinal ganglion cells; test: Axonal outgrowth from dissociated goldfish retinal ganglion cell cultures; details: for decline of AF-1 activity: n.s.; for effect of reducing agents on outgrowth stimulated by AF-1: a-tocopherol 30 μM, MEG 100 μM
Method: Axogenesis factor-1 was obtained essentially as described in Schwalb et al., 1995, and Schwalb et al., Neuroscience, 72: 901-910, 1996, the contents of which are incorporated herein by reference). Optic nerves were dissected, cut into fragments 1 mm in length, and incubated in a ratio of 6 nerves in 3 ml of either L-15 media (Gibco BRL) or phosphate-buffered saline (Gibco BRL). After 3-4 hours, nerve fragments were removed by filtering through a 0.22 μm pore low protein-binding filter (Gelman). A low molecular weight fraction of the conditioned media was prepared by ultrafiltration, first with a molecular weight cut-off of 3 kDa (Amicon Centriprep-3), then with a cut-off of 1 kDa (Filtron). The filtrate was used as a positive control at 20-30% final concentration. […] Goldfish (Comet Variety, Mt. Parnell Fisheries, Mt. Parnell Pa.), 6-10 cm in length, were dark-adapted and their retinas dissected. Retinas were incubated with papain (20 μg/ml), activated with cysteine (2.8 mM) for 30 minutes at room temperature, then dissociated by gentle trituration. […] Neuroscience 15: 5514-5625, 1995, the contents of which are incorporated herein by reference). […] Cells were maintained at 21° C. in serum free, defined media containing insulin, selenium, transferrin, bovine serum albumin, catalase, superoxide dismutase, hormones, and vitamins in Eagle's L-15 media as described in Schwalb et al., 1995, the contents of which are incorporated herein by reference). Dissociated cultures of purified rat retinal ganglion cells were prepared by immunopanning as described in Barres et al., Neuron, 1: 791-803, 1988, the contents of which are incorporated herein by reference). In brief, retinas from postnatal day 8 Sparague-Dawley rats were dissociated using papain activated with cysteine. Macrophages were removed by incubation with an anti-rat macrophage antibody (Accurate) followed by immunopanning with an anti-rabbit 1gG antibody. Ganglion cells were isolated by immunopanning with an anti-Thy-1 antibody, then dislodged with trypsin for use in low-density cultures. Rat retinal ganglion cells were maintained at 37° C. in a CO2 incubator using the same medium described above except for the presence of 30 mM bicarbonate. In a typical experiment, samples were plated in quadruplicate in randomized positions of a 24-well plate and the code was concealed to ensure that growth was evaluated in a blinded fashion. Each experiment contained 4 wells of a negative control (media plus supplements only) and 4 wells of a positive control (a standardized AF-1 sample of known activity). […] After the completion of counting, the code was broken, the data tabulated, and means and standard errors were calculated for the 4 replicate wells of each sample using Cricket Graph (CA Associates, […].). […] Group comparisons were based upon pairwise, 2-tailed Student's t-tests. Several independent experiments were performed for most samples, as noted in the figure legends. […] Cell survival is reported as the number of viable RGCs per high-powered field.

[2] = test system: goldfish retinal ganglion cells; test: Cell survival in goldfish retinal ganglion cell cultures (viable RGCs per field)
Method: Goldfish (Comet Variety, Mt. Parnell Fisheries, Mt. Parnell Pa.), 6-10 cm in length, were dark-adapted and their retinas dissected. Retinas were incubated with papain (20 μg/ml), activated with cysteine (2.8 mM) for 30 minutes at room temperature, then dissociated by gentle trituration. […] Low density cultures were achieved by plating c. 5×10^3 cells/well into poly L-lysine coated, 24-well culture dishes (Costar, Cambridge, Mass.). […] In brief, retinas from postnatal day 8 Sparague-Dawley rats were dissociated using papain activated with cysteine. Macrophages were removed by incubation with an anti-rat macrophage antibody (Accurate) followed by immunopanning with an anti-rabbit 1gG antibody. Ganglion cells were isolated by immunopanning with an anti-Thy-1 antibody, then dislodged with trypsin for use in low-density cultures. Rat retinal ganglion cells were maintained at 37° C. in a CO2 incubator using the same medium described above except for the presence of 30 mM bicarbonate.
In a typical experiment, samples were plated in quadruplicate in randomized positions of a 24-well plate and the code was concealed to ensure that growth was evaluated in a blinded fashion. Each experiment contained 4 wells of a negative control (media plus supplements only) and 4 wells of a positive control (a standardized AF-1 sample of known activity). Growth and survival were assessed after 6 days for all ganglion cells in 25 consecutive fields of each well using phase contrast microscopy at 400× magnification (c. 150 ganglion cells counted per well). […] After the completion of counting, the code was broken, the data tabulated, and means and standard errors were calculated for the 4 replicate wells of each sample using Cricket Graph (CA Associates, Islandia, N.Y.). Data were normalized by subtracting the growth in the negative controls (usually 4-5%) and dividing by the net growth in the positive controls. […] Group comparisons were based upon pairwise, 2-tailed Student's t-tests. Several independent experiments were performed for most samples, as noted in the figure legends. In some cases, cell viability was assessed with the dye 5,6-carboxyfluorescein diacetate. Cell survival is reported as the number of viable RGCs per high-powered field.

[3] = test system: rat retinal ganglion cells; test: Axonal outgrowth from purified rat retinal ganglion cells; details: 6-TG 10 μM, rat RGCs
Method: Goldfish (Comet Variety, Mt. Parnell Fisheries, Mt. Parnell Pa.), 6-10 cm in length, were dark-adapted and their retinas dissected. Retinas were incubated with papain (20 μg/ml), activated with cysteine (2.8 mM) for 30 minutes at room temperature, then dissociated by gentle trituration. Repeated cycles of trituration and sedimentation yielded cultures nearly homogeneous in ganglion cells, which are readily identified by their oval shape, phase-bright appearance, size (diameter 15 μm), and extension of only 1 or 2 neurites of uniform caliber; these criteria have been verified by retrograde labeling (see Schwartz & Agranoff, Brain Res. 206: 331-343, 1981 and Schwalb et al., J. Neuroscience 15: 5514-5625, 1995, the contents of which are incorporated herein by reference). Low density cultures were achieved by plating c. 5×10^3 cells/well into poly L-lysine coated, 24-well culture dishes (Costar, Cambridge, Mass.). Cells were maintained at 21° C. in serum free, defined media containing insulin, selenium, transferrin, bovine serum albumin, catalase, superoxide dismutase, hormones, and vitamins in Eagle's L-15 media as described in Schwalb et al., 1995, the contents of which are incorporated herein by reference). Dissociated cultures of purified rat retinal ganglion cells were prepared by immunopanning as described in Barres et al., Neuron, 1: 791-803, 1988, the contents of which are incorporated herein by reference). In brief, retinas from postnatal day 8 Sparague-Dawley rats were dissociated using papain activated with cysteine. Macrophages were removed by incubation with an anti-rat macrophage antibody (Accurate) followed by immunopanning with an anti-rabbit 1gG antibody. Ganglion cells were isolated by immunopanning with an anti-Thy-1 antibody, then dislodged with trypsin for use in low-density cultures. Rat retinal ganglion cells were maintained at 37° C. in a CO2 incubator using the same medium described above except for the presence of 30 mM bicarbonate.
In a typical experiment, samples were plated in quadruplicate in randomized positions of a 24-well plate and the code was concealed to ensure that growth was evaluated in a blinded fashion. Each experiment contained 4 wells of a negative control (media plus supplements only) and 4 wells of a positive control (a standardized AF-1 sample of known activity). Growth and survival were assessed after 6 days for all ganglion cells in 25 consecutive fields of each well using phase contrast microscopy at 400× magnification (c. 150 ganglion cells counted per well). Extension of a process 5 cell diameters in length was the criterion for growth, since it clearly distinguishes stimulated cells from negative controls (see Schwalb et al., 1995). After the completion of counting, the code was broken, the data tabulated, and means and standard errors were calculated for the 4 replicate wells of each sample using Cricket Graph (CA Associates, Islandia, N.Y.). Data were normalized by subtracting the growth in the negative controls (usually 4-5%) and dividing by the net growth in the positive controls. In the most favorable experiments, more than 50% of retinal ganglion cells (RGCs) exposed to AF-1 extended axons 5 cell diameters in length after 6 days. Group comparisons were based upon pairwise, 2-tailed Student's t-tests. Several independent experiments were performed for most samples, as noted in the figure legends. In some cases, cell viability was assessed with the dye 5,6-carboxyfluorescein diacetate. […]

[4] = DCF alone, with AF-1, or with guanosine

8-bromoadenosine-3′,5′ cyclic monophosphorothioate [Sp-8-Br-cAMPS]
axonal outgrowth activity ([1]; concentrations up to 1 mM): inactive

CCCCCC[C@@H]([C@@H](C)O)n1cnc2c(N)ncnc21 (racemic) [EHNA, erythro-9-(2-hydroxy-3-nonyl) adenine]
effect on adenosine-stimulated outgrowth ([1]; 10 μM EHNA, 100 μM adenosine): rendered adenosine (100 μM) ineffective in stimulating outgrowth
reduction of growth stimulated by guanosine or AF-1 ([1]; EHNA 10 μM): about 50%
cell survival [2]: not altering cell survival

Nc1nc(Cl)nc2c1ncn2[C@@H]1O[C@H](CO)[C@@H](O)[C@H]1O [2-CA, 2-chloroadenosine]
growth relative to baseline ([1]; 100 μM, FIG. 2): diminishes growth below baseline levels
growth relative to baseline ([1]; 10 and 100 μM, 3 out of 3 experiments): small but significant decrease in growth below the baseline

Nc1nc2nc[nH]c2c(=S)[nH]1 [6-TG, 6-thioguanine]
effect on growth stimulated by 100 μM inosine or 100 μM guanosine ([1]; 6-TG 10 μM): no effect; also recorded: unaffected
effect on growth stimulated by AF-1 ([1]; 6-TG 10 μM): blocked all growth stimulated by AF-1; also recorded: suppressed growth induced by AF-1 below baseline; also recorded: completely blocked
effect on CNTF-induced outgrowth [3]: blocked CNTF-induced outgrowth; also recorded: inhibited

Nc1nc2c(nc(Br)n2[C@@H]2O[C@@H]3COP(=O)(O)O[C@H]3[C@H]2O)c(=O)[nH]1 [8-Br cGMP, 8-bromo cyclic GMP]
axonal outgrowth activity ([1]; tested at concentrations between 1-100 μM): Neither dibutyryl cAMP (dBcAMP) nor 8-Br cGMP showed any activity

Cn1c(=O)c2[nH]c(-c3ccc(S(=O)(=O)O)cc3)nc2n(C)c1=O [8-PST, 8-p-(sulfophenyltheophylline)]
effect on outgrowth stimulated by adenosine, guanosine, or AF-1 ([1]; 8-PST at 20 μM): no effect
effect on outgrowth stimulated by AF-1, 100 μM adenosine or 100 μM guanosine ([1]; addition of 20 pM 8-PST): unaffected

Nc1nc2c(nc(Sc3ccc(Cl)cc3)n2[C@@H]2O[C@@H]3COP(=O)(O)O[C@H]3[C@H]2O)c(=O)[nH]1 [8-pcpt-cGMP, 8-(4-chlorophenylthio) guanosine-3′,5′-cyclic monophosphate]
axonal outgrowth activity ([1]; concentrations up to 1 mM): inactive

Nc1ncnc2c1ncn2[C@@H]1O[C@H](COP(=O)(O)OP(=O)(O)O)[C@@H](O)[C@H]1O [ADP, adenosine diphosphate]
axonal outgrowth activity ([1]; at 100 μM): marginally significant level of activity

Nc1ncnc2c1ncn2[C@@H]1O[C@H](COP(=O)(O)O)[C@@H](O)[C@H]1O [AMP, adenosine 5′ monophosphate]
axonal outgrowth activity ([1]; at 100 μM): marginally significant level of activity

Nc1ncnc2c1ncn2[C@@H]1O[C@H](COP(=O)(O)OP(=O)(O)OP(=O)(O)O)[C@@H](O)[C@H]1O [ATP, adenosine triphosphate]
axonal outgrowth activity ([1]; at 10 μM): marginally significant level of activity
axonal outgrowth activity ([1]; at 100 μM): not at 100 μM

OC[C@H]1O[C@@H](n2cnc3c2NC=NC[C@H]3O)C[C@@H]1O [DCF, deoxycoformycin]
effects of DCF on outgrowth [1, 4]: did not occur
effects of DCF on survival [2, 4]: did not occur

O=[N+]([O-])c1ccc(CSc2ncnc3c2ncn3C2OC(CO)C(O)C2O)cc1 (centres unmarked) [NBTI, nitrobenzylthio inosine]
effect on the activity of AF-1 ([1]; NBTI 20 μM): no effect
loss of activity of inosine ([1]; NBTI 20 μM, 50 μM inosine): 86%
loss of activity of guanosine ([1]; NBTI 20 μM, 100 μM guanosine): 93%
decline of AF-1 activity ([1]; NBTI 20 μM, dipyridamole 10 μM): 10%

Cc1c(C)c2c(c(C)c1O)CC[C@@](C)(CCC[C@H](C)CCC[C@H](C)CCCC(C)C)O2 [a-tocopherol]
effect of reducing agents on outgrowth stimulated by AF-1 [1]: no effect; also recorded: not mimicked

OCCN(CCO)c1nc(N2CCCCC2)c2nc(N(CCO)CCO)nc(N3CCCCC3)c2n1 [dipyridamole]
effect of transport inhibitors on 6-TG blockade of AF-1-stimulated outgrowth ([1]; 6-TG 10 μM, NBTI 20 μM, dipyridamole 10 μM): failed to prevent 6-TG from blocking outgrowth; also recorded: not restored
decline of AF-1 activity ([1]; NBTI 20 μM, dipyridamole 10 μM): 25%

O=c1[nH]cnc2nc[nH]c12 [hypoxanthine]
axonal outgrowth activity ([1]; dose-response, FIG. 4): no activity at all
axonal outgrowth activity ([1]; dose-response, FIG. 4, listed as Hypoxanthine): inactive

glutathione a-methyl ester [MEG]
effect of reducing agents on outgrowth stimulated by AF-1 [1]: no effect; also recorded: not mimicked
